Laboratory results taken from PubChem BioAssay (NCI).
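Step 1: Grow cells in 96-well plates. Step 2: Expose to compound for 48 hours at 5 concentrations. Step 3: Interpolate endpoints linearly; if unreached, use highest concentration. At the TGI there is no net growth.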

Assays:
Assay in all cases: DTP human tumour cell line panel, 48 h
SN12C renal = system: SN12C renal
SK-MEL-28 melanoma = system: SK-MEL-28 melanoma
HOP-18 NSCLC = system: HOP-18 NSCLC
UO-31 renal = system: UO-31 renal
HOP-92 NSCLC = system: HOP-92 NSCLC
SF-295 CNS = system: SF-295 CNS
SW-620 colon = system: SW-620 colon
HOP-62 NSCLC = system: HOP-62 NSCLC
SK-OV-3 ovarian = system: SK-OV-3 ovarian
SF-268 CNS = system: SF-268 CNS
NCI-H460 lung = system: NCI-H460 lung
DMS 273 small cell lung = system: DMS 273 small cell lung
A549 NSCLC = system: A549 NSCLC
M19-MEL melanoma = system: M19-MEL melanoma
DMS 114 small cell lung = system: DMS 114 small cell lung
LXFL 529 NSCLC = system: LXFL 529 NSCLC
K-562 leukemia = system: K-562 leukemia
SNB-19 CNS = system: SNB-19 CNS
NCI-H522 lung = system: NCI-H522 lung
MOLT-4 leukemia = system: MOLT-4 leukemia
RPMI-8226 leukemia = system: RPMI-8226 leukemia
OVCAR-3 ovarian = system: OVCAR-3 ovarian
A498 renal = system: A498 renal
RXF-631 renal = system: RXF-631 renal
CAKI-1 renal = system: CAKI-1 renal
SNB-78 CNS = system: SNB-78 CNS
HL-60(TB) leukemia = system: HL-60(TB) leukemia
ACHN renal = system: ACHN renal
SK-MEL-2 melanoma = system: SK-MEL-2 melanoma
SNB-75 CNS = system: SNB-75 CNS
M14 melanoma = system: M14 melanoma
TK-10 renal = system: TK-10 renal
HCT-15 colon = system: HCT-15 colon
IGROV1 ovarian = system: IGROV1 ovarian
HCT-116 colon = system: HCT-116 colon
NCI-H23 lung = system: NCI-H23 lung
HCC-2998 colon = system: HCC-2998 colon
HT29 colon = system: HT29 colon
786-0 renal = system: 786-0 renal
LOX IMVI melanoma = system: LOX IMVI melanoma
COLO 205 colon = system: COLO 205 colon
KM12 colon = system: KM12 colon
MALME-3M melanoma = system: MALME-3M melanoma
EKVX NSCLC = system: EKVX NSCLC
KM20L2 colon = system: KM20L2 colon
SF-539 CNS = system: SF-539 CNS
U251 CNS = system: U251 CNS
OVCAR-5 ovarian = system: OVCAR-5 ovarian
UACC-62 melanoma = system: UACC-62 melanoma
UACC-257 melanoma = system: UACC-257 melanoma
SK-MEL-5 melanoma = system: SK-MEL-5 melanoma
OVCAR-8 ovarian = system: OVCAR-8 ovarian
OVCAR-4 ovarian = system: OVCAR-4 ovarian
NCI-H226 lung = system: NCI-H226 lung
DLD-1 colon = system: DLD-1 colon
RXF 393 renal = system: RXF 393 renal
CCRF-CEM leukemia = system: CCRF-CEM leukemia
XF 498 CNS = system: XF 498 CNS
SR leukemia = system: SR leukemia

Measured: TGI

Cc1cccc(C(C)(C)C)c1NC(=O)C(=O)Cc1nc2ccccc2s1
not listed: RXF 393 renal | CCRF-CEM leukemia | XF 498 CNS | SR leukemia
> 100 µM: all other assays above

c1ccc(-c2nnc(-c3nn(-c4ccccc4)c4nc5ccccc5nc34)o2)cc1
41.4 µM: RXF 393 renal
85.5 µM: CCRF-CEM leukemia
71.6 µM: MOLT-4 leukemia
61 µM: XF 498 CNS
99.5 µM: NCI-H226 lung
85.2 µM: HL-60(TB) leukemia
not listed: HOP-92 NSCLC | NCI-H460 lung | A498 renal | RXF-631 renal | SK-MEL-5 melanoma | SR leukemia
> 100 µM: all other assays above

COc1cc([C@@H]2c3cc4c(cc3[C@@H](NC(=O)c3cccc([N+](=O)[O-])c3)C3COC(=O)[C@@H]32)OCO4)cc(OC)c1O (stereo partly drawn)
1.49 µM: SN12C renal
10.8 µM: KM12 colon | EKVX NSCLC
4.31 µM: CAKI-1 renal | HCT-15 colon
27.9 µM: OVCAR-3 ovarian
1.11 µM: NCI-H23 lung
12.2 µM: UO-31 renal
> 67.9 µM: DLD-1 colon
9.94 µM: TK-10 renal
> 100 µM: DMS 273 small cell lung | M19-MEL melanoma | LXFL 529 NSCLC | K-562 leukemia | MOLT-4 leukemia | CCRF-CEM leukemia | SNB-78 CNS | COLO 205 colon | UACC-257 melanoma
3.99 µM: SF-295 CNS
7.54 µM: UACC-62 melanoma
1.32 µM: NCI-H460 lung
10.7 µM: SF-268 CNS
7.06 µM: OVCAR-8 ovarian
9.55 µM: SNB-75 CNS
11.7 µM: HT29 colon
4.77 µM: MALME-3M melanoma
7.23 µM: SK-MEL-2 melanoma
14.1 µM: SNB-19 CNS
> 57.7 µM: KM20L2 colon
9.41 µM: LOX IMVI melanoma
1.02 µM: NCI-H226 lung
> 22.1 µM: RPMI-8226 leukemia
0.121 µM: HOP-62 NSCLC
22.8 µM: HOP-92 NSCLC
> 19.8 µM: M14 melanoma
0.833 µM: 786-0 renal
1.62 µM: ACHN renal
24.3 µM: SW-620 colon
9.97 µM: RXF 393 renal
> 89.5 µM: OVCAR-4 ovarian
> 34.8 µM: HCT-116 colon
3.17 µM: HCC-2998 colon
1.33 µM: SF-539 CNS
> 43.8 µM: SK-MEL-28 melanoma
1.26 µM: U251 CNS
3.65 µM: SK-MEL-5 melanoma
8.54 µM: OVCAR-5 ovarian
1.72 µM: A549 NSCLC
> 37.4 µM: IGROV1 ovarian
18.8 µM: RXF-631 renal

c1ccc(N=c2snc(-c3ccccc3)s2)cc1
not listed: HOP-92 NSCLC | SF-295 CNS | OVCAR-3 ovarian | RXF-631 renal | NCI-H23 lung | HT29 colon | LOX IMVI melanoma | EKVX NSCLC | OVCAR-5 ovarian | XF 498 CNS
> 100 µM: all other assays above
